Entries after “also recorded” stand apart in the source; their conditions may differ. Like-named read-outs stand apart in the source and are kept apart here.
Tested on: BSA (bovine serum albumin)
Test: In vitro/in tubo glycation study: BSA + D-ribose, fluorescence intensity
Assay type: biochemical
Description: A study was conducted in vitro/in tubo to evaluate if the ingredients of the inventive composition have anti-glycation effects in an in tubo environment.
The in tubo experiments were conducted to evaluate glycation of BSA (bovine serum albumin) under control conditions and with exposure to an embodiment of the inventive composition. Samples were prepared, including inventives, comparatives, baseline, and positive and negative controls.
A test plate was prepared with discrete wells for receiving each of the test compositions. Solutions representing the active ingredient concentrations listed under “Ingredient” in Table 3, below, were added to a well containing BSA+D-ribose (the Indicator Solution) and PBS. The total amount of Test Solutions added for the inventive compositions was always the same for all tests-25 microliters-5 microliters of each Test Solution (Ingredient) per well. PBS was used as the solvent for the Test Solution. Plates were prepared in triplicate.
Tested Compositions: Blank: PBS+BSA, Negative control: PBS+BSA+D-ribose, Positive control: PBS+BSA+D-ribose+Aminoguanidine, Five Inventive […]
Samples were plated in triplicate and readings taken at the indicated wavelength at day 1 and day 14.
Evaluations of Fluorescent Intensity were made at ex 370 nm/em 440 nm
Samples were evaluated at time intervals of 0 days, 3 days, 14 Days, 21 Days. The main purpose of incorporating time intervals is to provide sufficient duration for capturing the anti-glycation effect. It is crucial to build in multiple time points to adequately capture the anti-glycation effects since they can vary depending on the specific ingredients used.
Magnitude of fluorescence intensity is positively indicative of extent of glycation. Glycation is expected to be maximal with negative control (BSA plus D-ribose), while glycation of positive control with known antiglycation agent, Aminoguanidine, is expected to be reduced relative to negative control.
Evaluation of anti-glycation effect of individual ingredients: each of Activated C, Dandelion Extract, Caffeine, Lavender Oil, and Vitamin E (5 microliter quantities) were plated with 245 microliter of [PBS+BSA+D-ribose]. Concentrations of each ingredient added to the wells were as follows Activated C (100%, 50%, 10%, 5% and 1%), Dandelion Extract (100%, 50%, 30%, 15% and 3%), Caffeine (2%, 1.5%, 1%, 0.5% and 0.1%), Lavender Oil (100%, 50%, 0.15%, 0.08% and 0.15%), and Vitamin E (100%, 50%, 1%, 0.5% and 0.1%).

[1] = each ingredient alone, 5 microliter plated with 245 microliter PBS+BSA+D-ribose, five concentrations each, data not shown

CCOC1=C(O)C(=O)O[C@@H]1[C@@H](O)CO [Activated C, 3-O-ETHYL ASCORBIC ACID]
anti-glycation effect of individual ingredients [1]: glycation effect only at high levels | anti-glycation effect of individual ingredients (each ingredient alone, 5 microliter plated with 245 microliter PBS+BSA+D-ribose, five concentrations each, data not shown, listed as Ascorbic acid): reduction of glycation at high doses only

N=C(N)NN [Positive control, Aminoguanidine]
Fluorescence intensity (day 14 readings, ex 370 nm/em 440 nm, PBS+BSA+D-ribose, intensity positively indicative of extent of glycation): 2.921 | Percent reduction in glycation (%) (day 14 readings, relative to negative control (PBS+BSA+D-ribose)): 23%

tocopherol [Vitamin E]
anti-glycation effect of individual ingredients [1]: no glycation effect | anti-glycation effect of individual ingredients (each ingredient alone, 5 microliter plated with 245 microliter PBS+BSA+D-ribose, five concentrations each, data not shown, listed as vitamin E): no significant reduction in glycation

Cn1c(=O)c2c(ncn2C)n(C)c1=O [Caffeine]
anti-glycation effect of individual ingredients: no glycation effect; also recorded: no significant reduction in glycation

— US20250241838A1, “COSMETIC COMPOSITION FOR WITH ANTI-GLYCATION EFFECT FOR ENHANCING SKIN RESISTANCE TO AGING” (L'OREAL, priority 2024, published 2025)
